The numbers were not newly measured in patent publication US9426985B2, “Compositions and methods to modulate the rate of EBIS production from dithiocarbamate fungicides” (Dow Agrosciences LLC, priority 2012, dated 2016), which cites them from elsewhere.

For data set [1] the following is noted: tomato leaves.

Regarding `S=C1SSC2=NCCN12` [EBIS, ethylene bisisthiocyanate sulfide], the “half-life on the leaf surface” value is given as “less than 2 days”. Regarding mancozeb, in data set [1], the “time to peak EBIS levels after application” value was “about two”.
